According to publication PMC12455130, “Multifunctional molecular agent for tau-targeted combinational therapy of Alzheimer’s disease” (The Journal of Biological Chemistry, 2025):
“Also recorded” adds a separate entry of the source.

Key:
Solubility = assay type: physicochemical; details: for solubility in polar organic solvent: DMSO
From the text: (§1) Therefore, in the following experiments, they were first dissolved in DMSO and further diluted in an excess of buffer. […] Logically, 1,4,7,10-tetramethyl-1,4,7,10-tetraazacyclododecane (4ME) and GA (compound structure was shown in Fig. S1) are considered as the precursor of 4GA and 2GA and therefore used as a comparative study to confirm whether the ancillary ligand had any effect on aggregation.

tau peptide R3 = target: T1, tau peptide R3 (Homo sapiens, UniProt P10636); test: Endogenous (tyrosine) fluorescence quenching of tau peptide R3; assay type: binding; details: for n (binding sites): Hill equation
T1 construct: R3 (^306VQIVYK PVDLSK VTSKCG SLGNIH HKPGGG Q^336) and rabbit anti-tau antibody were purchased from MuJin; purchased MuJin
T1 sequence (P10636 623-653 limits assumed): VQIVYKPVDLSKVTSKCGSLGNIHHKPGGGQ
Description: The affinity of the synthetic compounds toward tau peptide was evaluated by endogenous fluorescence quenching experiment. The N-galloyl-substituted azacrown (ligand) can quench the endogenous fluorescence of tyrosine residues (306–310, VQIVY) on R3 peptide chain (receptor), if there exists a definite interaction between the ligand and the receptor. With titration of 4GA or 2GA (ligands) into the solution of tau peptide R3 (receptors), the endogenous fluorescence (at 310 nm) of tyrosine residues on R3 peptide chain was gradually quenched (data provided in ESI, Fig. S11). The data were then fitted by the Stern−Volmer formula to give the quenching constants (Kb) (Fig. S12). The quenching constants (Kb) and binding sites (n) of 4GA or 2GA to R3 peptide in the temperatures 25 °C and 37 °C are presented in Table 1.
The structural changes of R3 protein upon binding to 4GA/2GA/GA was documented by fluorescence spectroscopy. Briefly, various concentrations of 4GA/2GA/GA (0, 5, 10, 15, 20, 30, 40, 60, or 80 μM) were added to the 15 μM R3 protein in 50 mM Tris–HCl buffer (pH 7.4) in a 10-mm quartz cuvette. The measurement was carried out by Hitachi F-7000 equipped with a circulating water bath at 25 and 37 °C. The fluorescence spectra of R3 protein were documented from 290 nm to 380 nm with 275 nm excitation. The widths of excitation and emission slit were set at 5 and 10 nm, respectively.
The Stern–Volmer (Formula 4.1) was used to determine the quenching mechanism, either static or dynamic quenching:(4.1) F0/F=1+KSV[Q] where F0 and F are the fluorescence intensity without and with quencher, [Q] means the concentration of quencher, and Ksv is the Stern–Volmer constant.
Furthermore, the binding constant (Kb) and number of the binding sites (n) of quencher on R3 protein could be calculated by Hill (Equation 4.2):(4.2) log[F0−F/F]=logKb+nlog[Q]
The tyrosine fluorescence quenching experiment was carried out to determine the binding ability between inhibitors and R3 protein. […] Furthermore, this experiment is reasonable given the relatively weak fluorescence intensity of 4GA, 2GA, and GA (Figure S10). With titration of inhibitors into the solution of R3 protein, the fluorescence of tyrosine residues was gradually quenched in two temperatures of 25°C and 37°C, implying that 4GA or 2GA can interact with R3.
Fluorescence quenching usually proceeds through either dynamic quenching or static quenching. Dynamic quenching refers to the contact process between excited fluorophore and quencher, while static quenching refers to the formation of fluorophore-quencher complexes. A series of data processing about the fluorescence change of tyrosine residues at 25°C and 37°C was utilized to figure out the binding constant. Compared to the standard Stern-Volmer curves, a minor positive deviation from linearity was observed by plotting F0/F versus concentration, indicating a mixture of dynamic and static patterns (Figure S11). Furthermore, the Hill equation was used to calculate the quenching constant and binding sites of inhibitors on R3 protein (Figure S12).

[1] = Stability in Hepes by UV-visible absorption; assay type: physicochemical; details: Hepes 50 mM, pH 7.4, 0.2% DMSO; 10 μM, 37 °C; 72 h
Description: as §1
Figure S8. The stability of 4GA (A) and 2GA (B) in HEPES (50 mM, pH 7.4, 0.2% DMSO) verified by UV-vis absorption spectroscopy. All sample concentrations were 10 μM and kept at 37℃ in atmosphere.

SK-N-SH cells [2] = test: Cell viability assay (CCK-8); assay type: cell-based; details: for SK-N-SH cells dead: 80 μM, 24 h incubation; for cytotoxicity (cell viability): SK-N-SH, concentration up to 40 μM
Description: However, we still face challenges to improve their therapeutic effects while reducing neurotoxicity. Therefore, a systematic investigation on the cytotoxicity of our new synthetic compounds was carried out. Herein, human neuroblastoma cells (SK-N-SH) were utilized for standard cell viability assay (Cell Counting Kit-8 [CCK-8] assay).
The human neuroblastoma cell (SK-N-SH) was obtained from the Chinese Academy of Sciences stem cell bank. Cells were maintained in Dulbecco’s modified Eagle’s medium (DMEM) supplemented with 10% fetal bovine serum (FBS), 100 U/ml penicillin G, and 100 μg/ml streptomycin at 37 °C in a humidified atmosphere containing 5% CO2.
Cells were plated in 96-well plate at a density of 1 × 10^4 in 100 μl medium per well for 24 h. Then, the FBS-free medium containing the tested compounds at different concentrations was used to replace the old medium. After 24 h incubation, 100 μl of FBS-free DMEM containing 10% CCK-8 was added into each well to replace the old medium. After 2 h incubation, the absorbance at 450 nm was measured by SpectraMax iD3 (Molecular Devices).

SK-N-SH cells [3] = test: Cell rescue assay (CCK-8) against R3 aggregates / Cu2+; assay type: cell-based, human; details: R3, heparin, Cu2+ preincubated with compound (20 μM), diluted 1:1, 24 h
Description: In this regard, we next evaluated the detoxification effect of 4GA and 2GA in the SK-N-SH cells treated with different components with possible cytotoxicity, including R3, R3 aggregates (R3 + heparin), Cu^2+, 4GA, 2GA, GA, and 4ME in indicated conditions, as shown in Figure 6B.
For cell rescue assay, 30 μM R3, 7.5 μM heparin was incubated in FBS–DMEM containing 7.5 μM Cu^2+ and different compounds (20 μM) at 37 °C for 1 h. Then, 500 μl of preincubated R3 solution was diluted with 500 μl fresh FBS–DMEM, and the mixture was used to replace the old medium after the cell attached to the 96-well plate. After cultured for 24 h, CCK-8 was used to measure the cell viability.

Compound | solubility in water (Solubility) | solubility in polar organic solvent (Solubility) | n (binding sites) (tau peptide R3; 25 °C) | n (binding sites) (tau peptide R3; 37 °C) | stability in buffer [1] | SK-N-SH cells dead (SK-N-SH cells [2]) [%] | cytotoxicity (cell viability) (SK-N-SH cells [2]; 24 h) | rescue of cell viability against R3 aggregates or Cu2+ (SK-N-SH cells [3]) | cytotoxicity (survival rate of SK-N-SH cells) (SK-N-SH cells [2]; dose-dependent test, 24 h) | binding ability / interaction with R3 (tau peptide R3; 25 °C and 37 °C)
CN1CCN(C(=O)c2cc(O)c(O)c(O)c2)CCN(C)CCN(C(=O)c2cc(O)c(O)c(O)c2)CC1 [2GA, (4,10-dimethyl-1,4,7,10-tetraazacyclododecane-1,7-diyl)bis((3,4,5-trihydroxyphenyl)methanone)] | slightly soluble in water | soluble in polar organic solvent such as dimethyl sulfoxide (DMSO) | 1.14 ± 0.05 | 1.32 ± 0.04 | remain stable at 72 h | 34.2 | insignificant cytotoxicity | dramatically elevates the cell viability | – | –
O=C(c1cc(O)c(O)c(O)c1)N1CCN(C(=O)c2cc(O)c(O)c(O)c2)CCN(C(=O)c2cc(O)c(O)c(O)c2)CCN(C(=O)c2cc(O)c(O)c(O)c2)CC1 [4GA, (1,4,7,10-tetraazacyclododecane-1,4,7,10-tetrayl)tetrakis((3,4,5-trihydroxyphenyl)methanone)] | slightly soluble in water | soluble in polar organic solvent such as dimethyl sulfoxide (DMSO) | 1.33 ± 0.05 | 1.54 ± 0.07 | remain stable at 72 h | 40.5 | insignificant cytotoxicity | dramatically elevates the cell viability | – | –
CN1CCN(C)CCN(C)CCN(C)CC1 [4ME, 1,4,7,10-tetramethyl-1,4,7,10-tetraazacyclododecane, reference compound] | – | – | – | – | – | – | – | only a limited rescue ability | negligible | –
O=C(O)c1cc(O)c(O)c(O)c1 [GA, gallic acid, reference compound] | – | – | – | – | – | – | – | only a limited rescue ability | – | no significant interaction between GA and R3; also recorded: negligible binding ability
